Reference: ChEMBL document CHEMBL4340575, “Design, synthesis and biological evaluation of novel aryl-acrylic derivatives as novel indoleamine-2,3-dioxygenase 1 (IDO1) inhibitors” (Bioorg Med Chem, 2019)

Legend:
[1] = molecular target: T1, Indoleamine 2,3-dioxygenase 1 (Homo sapiens, UniProt P14902); assay: Inhibition of purified recombinant human IDO1 using L-tryptophan substrate incubated fro 30 mins
[2] = molecular target: T1, Indoleamine 2,3-dioxygenase 1; assay: Inhibition of IDO1 in interferon-gamma-induced human HeLa cells using L-tryptophan substrate incubated for 24 hrs; assay type: cell-based
HeLa = assay: Toxicity in human HeLa cells assessed as reduction in cell viability; assay type: cell-based

T1 sequence (P14902 whole entry): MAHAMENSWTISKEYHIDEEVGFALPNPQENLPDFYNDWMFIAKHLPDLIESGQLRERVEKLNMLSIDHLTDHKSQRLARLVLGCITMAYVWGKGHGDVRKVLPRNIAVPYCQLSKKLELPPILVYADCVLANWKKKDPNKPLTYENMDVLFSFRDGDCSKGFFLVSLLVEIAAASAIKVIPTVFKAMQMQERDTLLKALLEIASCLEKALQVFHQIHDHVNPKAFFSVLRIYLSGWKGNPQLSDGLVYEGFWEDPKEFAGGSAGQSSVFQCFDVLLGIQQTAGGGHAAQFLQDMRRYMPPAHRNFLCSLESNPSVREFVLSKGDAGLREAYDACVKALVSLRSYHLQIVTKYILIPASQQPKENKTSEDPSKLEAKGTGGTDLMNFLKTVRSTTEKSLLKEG

| Structure (SMILES) | IC50 [1] [µM] | IC50 [2] [µM] | Activity (HeLa) |
| --- | --- | --- | --- |
| CCCCN(CCCC)c1ccc(/C(C)=C/C(=O)O)cc1NC(=O)N/N=C/c1ccccc1C(F)(F)F | 12.3 | 2.83 | Non-Toxic |
| C/C(=C\C(=O)O)c1ccc(N(CC(C)C)CC(C)C)c(NC(=O)N/N=C/c2ccccc2F)c1 | 10.1 | 1.95 | Non-Toxic |
| C/C(=C\C(=O)O)c1ccc(N2CCOCC2)c(-n2cc(CNc3ccc(F)cc3)nn2)c1 | 58.3 | 20 |  |
| C/C(=C\C(=O)O)c1ccc(N(CC(C)C)CC(C)C)c(NC(=O)N/N=C/c2ccc(Cl)cc2)c1 | 10.2 | 1.02 | Non-Toxic |
| CCCCN(CCCC)c1ccc(/C(C)=C/C(=O)O)cc1NC(=O)N/N=C/c1ccc(Cl)cc1 | 14.4 | 3.87 | Non-Toxic |
